1 compound from publication PMC4370629, “Structural and Functional Studies of Phosphoenolpyruvate Carboxykinase from Mycobacterium tuberculosis” (PLoS ONE, 2015) can be followed below.

pKd: −log10 of the molar value.

This assay concerns the target T1, Mtb Pck (Mycobacterium tuberculosis, UniProt P9WIH3).
T1 construct: gene pckG
Description: biochemical.

T1 sequence (P9WIH3 whole entry): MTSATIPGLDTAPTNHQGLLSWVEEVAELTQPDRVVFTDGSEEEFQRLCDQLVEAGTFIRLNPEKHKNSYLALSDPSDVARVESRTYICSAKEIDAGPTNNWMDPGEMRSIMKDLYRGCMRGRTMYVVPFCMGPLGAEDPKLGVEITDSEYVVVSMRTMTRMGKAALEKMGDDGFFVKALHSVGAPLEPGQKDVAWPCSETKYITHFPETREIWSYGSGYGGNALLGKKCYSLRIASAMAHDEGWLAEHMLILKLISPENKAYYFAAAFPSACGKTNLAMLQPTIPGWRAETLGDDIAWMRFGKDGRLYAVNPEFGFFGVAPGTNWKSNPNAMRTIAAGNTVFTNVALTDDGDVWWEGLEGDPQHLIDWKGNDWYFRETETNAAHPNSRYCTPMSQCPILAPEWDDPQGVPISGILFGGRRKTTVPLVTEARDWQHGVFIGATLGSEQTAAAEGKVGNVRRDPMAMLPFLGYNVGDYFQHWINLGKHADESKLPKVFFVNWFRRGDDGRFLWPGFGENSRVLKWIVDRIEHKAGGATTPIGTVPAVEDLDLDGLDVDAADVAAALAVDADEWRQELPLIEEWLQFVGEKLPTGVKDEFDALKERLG

As for `Nc1nc2c(ncn2[C@@H]2O[C@H](COP(=O)(O)OP(=O)(O)OP(=O)(O)O)[C@@H](O)[C@H]2O)c(=O)[nH]1` [GTP], the pKd is 5.14.

In general, pKd refers to −log10 of the Kd, conventionally taken in molar units. A high value points to a low Kd.
